According to patent US9745274B2, “Compound, organic cation transporter 3 detection agent, and organic cation transporter 3 activity inhibitor” (SHIN NIPPON BIOMEDICAL LABORATORIES, LTD., priority 2013, dated 2017):
Values belong to the compound of their own block, whether it stands above or below them.

How the values were obtained:
[1] = target: T1, human organic cation transporter 3 (hOCT3) (Homo sapiens, UniProt O75751); assay: Histamine incorporation experiment in HEK293 cells expressing hOCT3 (OCT3 inhibition activity); type: cell-based; settings: for OCT3 Inhibition Rate (%): Tables 3-1 to 3-15, in a manner similar to Example 12 (30 μM there), concentration not given in the tables; for remaining activity at 10 µM / remaining activity at 30 µM: HEK293, 1 min, no inhibitor = 100%, read-out: Histamine Incorporation Rate to Control (%); for remaining activity at 10 µM / inhibition at 10 µM: Compound Concentration 10 μM; for remaining activity at 30 µM / inhibition at 30 µM: Compound Concentration 30 μM; for remaining activity at 30 µM: [3H]histamine 100 nM, 1 minute; for inhibition at 10 µM / inhibition at 30 µM: HEK293, 100% minus histamine incorporation rate
T1 construct: expressed in transfected cells; host or cells: HEK293
T1 sequence (O75751 1-556): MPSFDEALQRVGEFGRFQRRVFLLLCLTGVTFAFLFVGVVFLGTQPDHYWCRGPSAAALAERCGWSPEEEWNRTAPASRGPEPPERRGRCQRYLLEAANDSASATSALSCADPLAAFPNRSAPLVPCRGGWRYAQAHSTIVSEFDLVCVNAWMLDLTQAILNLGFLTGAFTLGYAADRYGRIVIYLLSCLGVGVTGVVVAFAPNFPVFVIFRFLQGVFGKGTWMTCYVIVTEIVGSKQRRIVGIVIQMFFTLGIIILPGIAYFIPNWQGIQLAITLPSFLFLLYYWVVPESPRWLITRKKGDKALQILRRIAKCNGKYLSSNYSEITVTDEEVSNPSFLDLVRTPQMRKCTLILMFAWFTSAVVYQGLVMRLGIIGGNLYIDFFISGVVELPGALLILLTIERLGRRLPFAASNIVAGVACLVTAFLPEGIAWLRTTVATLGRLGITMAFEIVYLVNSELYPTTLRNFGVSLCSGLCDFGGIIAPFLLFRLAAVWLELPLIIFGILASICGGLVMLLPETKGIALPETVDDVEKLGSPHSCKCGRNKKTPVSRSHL
Method: In order to measure an activity that inhibits OCT3 from incorporating a substrate (OCT3 inhibition activity) for each compound, histamine incorporation experiments as described below were performed.
Histamine incorporation experiments were performed in accordance with a method disclosed in Br J Pharmacol. 2002; 136(6): 829-836. In the experiments, HEK293 cells were used. The HEK293 cell is a human embryonal renal cell strain expressing human organic cation transporter 3 (hOCT3). The HEK 293 cells were inoculated onto 24-well plates at 1.5×10^5 cells/well, and were cultivated overnight in a carbon dioxide incubator. Test substances were dissolved in 100% DMSO solution and then dissolved in HBSS-HEPES solution (buffer solution prepared by dissolving 9.7 g Hank's Balanced Salt, 1.4% sodium bicarbonate 25 mL, and 1M HEPES 25 mL in 940 mL ultra pure water, and by adjusting to pH7.4 with 1M sodium hydroxide). After removing culture media for cell culture, pretreatment was performed for 5 minutes with 1 mL HBSS-HEPES solution. Then, the test substance and [3H]histamine (final concentration 100 nM) were added to the cells and reacted for 1 minute at room temperature. After the reaction was completed, the reaction was stopped by ice-cooled HBSS-HEPES solution, extracellular fluid was aspirated by an aspirator, and then the cells were washed twice with HBSS-HEPES. After washing, the cells were dissolved in 0.5M sodium hydroxide solution. The amount of histamine in the cells was found by measuring a radioactivity in a cell lysis solution by a liquid scintillation counter. Protein content in the cells was measured by Lowry method (J Biol Chem. 1951; 193(1): 265-75) by using the cell lysis solution, and translated into histamine incorporation amount per protein content for each experiment. A histamine incorporation rate (%) in the presence of 30 μM of the test substance was calculated by regarding a histamine incorporation amount in a case of no incorporation inhibitor as 100% (control) of histamine incorporation rate. A value (%) obtained by subtracting the histamine incorporation rate from 100(%) was calculated as an OCT3 inhibition rate (%).
Note that a histamine incorporation rate (%) in the presence of 10 μM of the test substance was calculated by regarding a histamine incorporation amount in a case of no incorporation inhibitor as 100% (control) of histamine incorporation rate. A value (%) obtained by subtracting the histamine incorporation rate from 100(%) was calculated as an OCT3 inhibition rate (%). […]

[2] = target: T1, human organic cation transporter 3 (hOCT3); assay: as above; type: cell-based; settings: control curve; for IC80: HEK293

Compound: CN(C)c1nc(CSCC/C(N)=N/S(=O)(=O)C(F)(F)F)cs1 [SR-2005]
OCT3 Inhibition Rate (%) [1]: −7.8%

Compound: Cc1nc(CCSCc2csc(N(C)C)n2)[nH]c(=O)c1CCc1ccccc1 [SR-2011]
OCT3 Inhibition Rate (%) [1]: 37.9%

Compound: NC(N)=Nc1cccc(CSCC/C(N)=N/S(=O)(=O)C(F)(F)F)c1 [SR-2020]
OCT3 Inhibition Rate (%) [1]: 25.4%

Compound: NC(N)=Nc1cccc(CSCC/C(N)=N/S(=O)(=O)C(F)(F)F)n1 [SR-2022]
remaining activity at 10 µM [1]: 50%
remaining activity at 30 µM [1]: 21%
inhibition at 10 µM [1]: 50%
inhibition at 30 µM [1]: 79%
IC80 [2]: 30 µM
IC50 [2]: 10.5 µM

Compound: CN/C(=C\[N+](=O)[O-])NCCSCc1csc(N=C(N)N)n1 [SR-2044]
OCT3 Inhibition Rate (%) [1]: 7.9%

Compound: NC(N)=Nc1nc(CSCCNC(=O)CO)cs1 [SR-2045]
remaining activity at 10 µM [1]: 56.6%
remaining activity at 30 µM [1]: 35.2%
inhibition at 10 µM [1]: 43.4%
inhibition at 30 µM [1]: 64.8%
IC80 [2]: 56 µM
IC50 [2]: 12.4 µM

Compound: NC(N)=Nc1nc(CCCC/C(N)=N/S(=O)(=O)C(F)(F)F)cs1 [SR-2065]
remaining activity at 10 µM [1]: 72.9%
remaining activity at 30 µM [1]: 41.5%
inhibition at 10 µM [1]: 27.1%
inhibition at 30 µM [1]: 58.5%
IC80 [2]: 90 µM
IC50 [2]: 24 µM

Compound: N#C/N=C(\N)NCCCCc1csc(N=C(N)N)n1 [SR-2069]
remaining activity at 30 µM [1]: 48.6%
inhibition at 30 µM [1]: 51.4%

Compound: N=C(N)NCCCCc1csc(N=C(N)N)n1 [SR-2071]
OCT3 Inhibition Rate (%) [1]: 27.0%

Compound: NC(N)=Nc1nc(CCCCNC(=O)CO)cs1 [SR-2073]
remaining activity at 30 µM [1]: 52.9%
inhibition at 30 µM [1]: 47.1%

Compound: Cc1nc(CCCCc2csc(N=C(N)N)n2)[nH]c(=O)c1CCc1ccccc1 [SR-2076]
remaining activity at 10 µM [1]: 14.8%
remaining activity at 30 µM [1]: 11.8%
inhibition at 10 µM [1]: 85.2%
inhibition at 30 µM [1]: 88.2%
IC80 [2]: 8 µM
IC50 [2]: 1.9 µM

Compound: CNCCCCc1csc(N=C(N)N)n1 [SR-2204]
OCT3 Inhibition Rate (%) [1]: 3.4%

Compound: Cc1nc(CCSCc2csc(N=C3NCCN3)n2)[nH]c(=O)c1CCc1ccccc1 [SR-2213]
OCT3 Inhibition Rate (%) [1]: 45.8%

Compound: NC(N)=Nc1nc(CSCCC(N)=NS(=O)(=O)C(F)(F)F)cs1 [SR-2216]
OCT3 Inhibition Rate (%) [1]: 61.5%

Compound: Cc1nc(CCSCc2ccnc(N=C(N)N)c2)[nH]c(=O)c1CCc1ccccc1 [SR-2219]
remaining activity at 10 µM [1]: 51.5%
remaining activity at 30 µM [1]: 22.6%
inhibition at 10 µM [1]: 48.5%
inhibition at 30 µM [1]: 77.4%
IC80 [2]: 49 µM
IC50 [2]: 19 µM

Compound: CC(=O)NC(=O)CCSCc1csc(N=C(N)N)n1 [SR-2225]
OCT3 Inhibition Rate (%) [1]: 30.4%

Compound: Cc1nc(CSCC/C(N)=N/S(N)(=O)=O)cs1 [SR-2228]
OCT3 Inhibition Rate (%) [1]: 17.6%

Compound: NC(N)=Nc1cc(CSCCC(N)=NS(N)(=O)=O)ccn1 [SR-2229]
remaining activity at 30 µM [1]: 55.8%
inhibition at 30 µM [1]: 44.2%

Compound: NC(N)=Nc1cccc(CSCCC(N)=NS(N)(=O)=O)n1 [SR-2230]
remaining activity at 30 µM [1]: 41.4%
inhibition at 30 µM [1]: 58.6%

Compound: N=C(N)CCSCc1ccc([N+](=O)[O-])n1Cc1ccccc1 [SR-2234]
OCT3 Inhibition Rate (%) [1]: 50.2%

Compound: N=C(N)NCc1csc(N=C(N)N)n1 [SR-2236]
OCT3 Inhibition Rate (%) [1]: −1.4%

Compound: Cc1nc(CSCC/C(N)=N/S(=O)(=O)C(F)(F)F)cs1 [SR-2238]
OCT3 Inhibition Rate (%) [1]: −7.4%

Compound: Cc1nc(CSCCc2nc(=O)c(CCc3ccccc3)c(C)[nH]2)cs1 [SR-2239]
OCT3 Inhibition Rate (%) [1]: 33.2%

Compound: NC(CCSCc1cscn1)=NS(N)(=O)=O [SR-3001]
OCT3 Inhibition Rate (%) [1]: −14.7%

Compound: Cc1[nH]c(CCSCc2cscn2)nc(=O)c1CCc1ccccc1 [SR-3003]
OCT3 Inhibition Rate (%) [1]: 40.6%

Compound: CC(C)c1nc(CSCCC(N)=NS(=O)(=O)C(F)(F)F)cs1 [SR-3021]
OCT3 Inhibition Rate (%) [1]: −4.0%

Compound: NC(N)=Nc1nc(CSCCc2ccc(F)cc2)cs1 [SR-3137]
OCT3 Inhibition Rate (%) [1]: 33.3%

Compound: NC(N)=Nc1ncc(CSCCC(N)=NS(=O)(=O)c2ccccc2)s1 [SR-3203]
OCT3 Inhibition Rate (%) [1]: 22.2%

Compound: N=C(N)CCSCc1csc(N=C2NCCN2)n1 [SR-3208]
OCT3 Inhibition Rate (%) [1]: 8.7%

The remaining lines, values ahead:

remaining activity at 10 µM [1]: 36.7%
remaining activity at 30 µM [1]: 15%
inhibition at 10 µM [1]: 63.3%
inhibition at 30 µM [1]: 85%
IC80 [2]: 28 µM
IC50 [2]: 6.5 µM
Compound: NC(N)=Nc1cc(CSCC/C(N)=N/S(=O)(=O)C(F)(F)F)ccn1 [SR-2023]

remaining activity at 10 µM [1]: 33.7%
remaining activity at 30 µM [1]: 15.4%
inhibition at 10 µM [1]: 66.3%
inhibition at 30 µM [1]: 84.6%
IC80 [2]: 27 µM
IC50 [2]: 5.9 µM
Compound: Cc1nc(CCSCc2cccc(N=C(N)N)n2)[nH]c(=O)c1CCc1ccccc1 [SR-2036]

OCT3 Inhibition Rate (%) [1]: 38.8%
Compound: NC(N)=Nc1nc(CSCCc2ncc(CCc3ccccc3)o2)cs1 [SR-2051]

OCT3 Inhibition Rate (%) [1]: 17.5%
Compound: Cc1nc(CCCOc2cc(N=C(N)N)ccn2)[nH]c(=O)c1CCc1ccccc1 [SR-2064]

remaining activity at 30 µM [1]: 58.1%
inhibition at 30 µM [1]: 41.9%
Compound: NC(N)=Nc1nc(CCCC/C(N)=N/S(N)(=O)=O)cs1 [SR-2066]

OCT3 Inhibition Rate (%) [1]: 28.5%
Compound: N=C(N)CCCCc1csc(N=C(N)N)n1 [SR-2068, 5-[2-(diaminomethyleneamino)thiazole-4-yl]pentaimideamide]

OCT3 Inhibition Rate (%) [1]: 23.9%
Compound: CNC(=O)CCCCc1csc(N=C(N)N)n1 [SR-2075]

OCT3 Inhibition Rate (%) [1]: 16.3%
Compound: CNC(=O)CCSCc1csc(N=C(N)N)n1 [SR-2203]

OCT3 Inhibition Rate (%) [1]: 6.7%
Compound: CC(C)c1nc(CSCCC(N)=NS(N)(=O)=O)cs1 [SR-2207, (Z)-3-((2-isopropylthiazol-4-yl)methylthio)-N′-sulfamoylpropanimidamide]

OCT3 Inhibition Rate (%) [1]: 21.8%
Compound: NC(N)=Nc1nc(CSCCC(=O)NC(=O)c2ccccc2)cs1 [SR-2226]

OCT3 Inhibition Rate (%) [1]: 13.8%
Compound: CSc1nc(CSCCC(N)=NS(N)(=O)=O)cs1 [SR-2227]

OCT3 Inhibition Rate (%) [1]: 4.7%
Compound: N=C(N)CCSCc1ccc([N+](=O)[O-])o1 [SR-2233]

OCT3 Inhibition Rate (%) [1]: 8.7%
Compound: Cc1nc(CCSCc2ccc([N+](=O)[O-])n2Cc2ccccc2)[nH]c(=O)c1CCc1ccccc1 [SR-2235]

OCT3 Inhibition Rate (%) [1]: −0.2%
Compound: NC(CCSCc1cscn1)=NS(=O)(=O)C(F)(F)F [SR-3002]

OCT3 Inhibition Rate (%) [1]: −8.1%
Compound: CSc1nc(CSCCC(N)=NS(=O)(=O)C(F)(F)F)cs1 [SR-3012]

OCT3 Inhibition Rate (%) [1]: 47.2%
Compound: NC(N)=Nc1nc(CSc2ccc(F)cc2)cs1 [SR-3123]

OCT3 Inhibition Rate (%) [1]: 20.6%
Compound: NC(N)=Nc1nc(COCc2ccc(F)cc2)cs1 [SR-3129]

OCT3 Inhibition Rate (%) [1]: 22.3%
Compound: NC(N)=Nc1nc(CCCc2ccc(F)cc2)cs1 [SR-3131]

OCT3 Inhibition Rate (%) [1]: 28.6%
Compound: NC(N)=Nc1nc(CNCCc2ccc(F)cc2)cs1 [SR-3136]

OCT3 Inhibition Rate (%) [1]: −11.5%
Compound: N=C(NCc1csc(N=C(N)N)n1)NS(N)(=O)=O [SR-3154]

OCT3 Inhibition Rate (%) [1]: −10.3%
Compound: NC(N)=Nc1nc(CS/C(N)=N\S(N)(=O)=O)cs1 [SR-3155]

OCT3 Inhibition Rate (%) [1]: 6.2%
Compound: NC(N)=Nc1nc(CS/C(N)=N/S(=O)(=O)C(F)(F)F)cs1 [SR-3159]

OCT3 Inhibition Rate (%) [1]: 43.0%
Compound: CCCCN/C(N)=N/c1nc(CSCCC(=N)N)cs1 [SR-3209]
